Residues, ends and D or L forms follow the SMILES beside them.
Assays:
L929 murine fibroblast = assay: MTT cytotoxicity assay on L929 fibroblasts; type: cell-based, mouse; conditions: for cell survival: 1 wt %; for cell viability: 0.1 wt %
Procedure: (§1) L929 murine fibroblast and C2C12 immortalized mouse myoblast cell lines (both from ECACC General Cell Collection) were grown in Dulbecco’s modified Eagle’s medium (DMEM) supplemented with 10% fetal bovine serum, 20 mM HEPES, and 1% GlutaMAX. The cells were maintained at pH 7.4, 37 °C, and 5% CO2 in 25 cm^2 cell culture flasks.
(§2) Cells were seeded in 96-well plates at a density of 0.6 × 10^4 cells per well. Cells were then treated with peptides dissolved in the medium at the concentrations of 0.1 and 1 × 10^–4 wt %. To test cytocompatibility in the presence of the hydrogels, wells were filled with 1 wt % mG and pG hydrogels before seeding. At the end of the treatment (after 24 or 72 h), cell viability was assessed using an MTT [3-(4, 5-dimethylthiazolyl-2)-2, 5-diphenyltetrazolium bromide] assay. In brief, after the removal of the culture medium, MTT, dissolved in DMEM at a concentration of 0.5 mg/mL, was added to the cells and incubated for 4 h at 37 °C. The resulting formazan crystals were dissolved by adding dimethyl sulfoxide. Absorbance values of blue formazan were determined at 560 nm using an automatic plate reader. Cell survival was expressed as a percentage of viable cells in the presence of peptides, compared to control cells grown in their absence. The assay was repeated three times, and the results were averaged. Statistical significance was tested using multiple Welch’s t-tests. All analyses were conducted using Prism 7.

[1] = test system: C2C12 immortalized mouse myoblast; assay: MTT cytotoxicity assay on C2C12 myoblasts; type: cell-based; conditions: for cell viability: 72 h, 0.1 wt %; for tolerance of hydrogels in words: C2C12 on hydrogels (1 wt %), 24 h and 72 h, MTT
Procedure: as §1, §2

[2] = not given; remark: listed apart in the source
[3] = not given; remark: listed apart in the source

Row | SMILES | cell survival (L929 murine fibroblast; 24 h) | cell viability (L929 murine fibroblast; 72 h) | cell survival (L929 murine fibroblast; 72 h) | cell viability [1] | tolerance of hydrogels in words [1] | nanotape mean thickness in hydrogel | nanotube radius [2] | fiber mean diameter [3]
1 | CCCCCCCCCCCCCC(=O)NCC(=O)NCC(=O)NCC(=O)N[C@@H](CCCNC(=N)N)C(=O)NCC(=O)N[C@@H](CC(=O)O)C(=O)N[C@@H](CO)C(=O)O [mG, C14-GGGRGDS] (HELM PEPTIDE1{[CCCCCCCCCCCCCC(=O)[*:2]].G.G.G.R.G.D.S}$$$$V2.0) | 92.6 ± 8.8% | 30.7 ± 4.7% | 94.6 ± 12.6% | 84.4 ± 9.6% | reasonably well tolerated | 13.6 nm | – | –
2 | CCCCCCCCCCCCCC(=O)N[C@@H](Cc1c[nH]c2ccccc12)C(=O)NCC(=O)NCC(=O)N[C@@H](CCCNC(=N)N)C(=O)NCC(=O)N[C@@H](CC(=O)O)C(=O)N[C@@H](CO)C(=O)O [mW, C14-WGGRGDS] (HELM PEPTIDE1{[CCCCCCCCCCCCCC(=O)[*:2]].W.G.G.R.G.D.S}$$$$V2.0) | – | 28.1 ± 3.1% | – | 72.3 ± 10.2% | – | – | 750 Å | –
3 | CCCCCCCCCCCCCCCC(=O)NCC(=O)NCC(=O)NCC(=O)N[C@@H](CCCNC(=N)N)C(=O)NCC(=O)N[C@@H](CC(=O)O)C(=O)N[C@@H](CO)C(=O)O [pG, C16-GGGRGDS] (HELM PEPTIDE1{[CCCCCCCCCCCCCCCC(=O)[*:2]].G.G.G.R.G.D.S}$$$$V2.0) | – | 31.8 ± 5.1% | – | 86.0 ± 6.8% | reasonably well tolerated | – | – | –
4 | CCCCCCCCCCCCCCCC(=O)N[C@@H](Cc1c[nH]c2ccccc12)C(=O)NCC(=O)NCC(=O)N[C@@H](CCCNC(=N)N)C(=O)NCC(=O)N[C@@H](CC(=O)O)C(=O)N[C@@H](CO)C(=O)O [pW, C16-WGGRGDS] (HELM PEPTIDE1{[CCCCCCCCCCCCCCCC(=O)[*:2]].W.G.G.R.G.D.S}$$$$V2.0) | – | 36.3 ± 5.1% | – | 73.3 ± 2.8% | – | – | – | 4 nm

From publication PMC9832505, “Cell Adhesion Motif-Functionalized Lipopeptides: Nanostructure and Selective Myoblast Cytocompatibility” (Biomacromolecules, 2022)
